Molecular target: T1, SHP2 full-length protein (Homo sapiens, UniProt Q06124)
T1 construct: purchased BPS Bioscience #79330
T1 sequence (Q06124 1-593): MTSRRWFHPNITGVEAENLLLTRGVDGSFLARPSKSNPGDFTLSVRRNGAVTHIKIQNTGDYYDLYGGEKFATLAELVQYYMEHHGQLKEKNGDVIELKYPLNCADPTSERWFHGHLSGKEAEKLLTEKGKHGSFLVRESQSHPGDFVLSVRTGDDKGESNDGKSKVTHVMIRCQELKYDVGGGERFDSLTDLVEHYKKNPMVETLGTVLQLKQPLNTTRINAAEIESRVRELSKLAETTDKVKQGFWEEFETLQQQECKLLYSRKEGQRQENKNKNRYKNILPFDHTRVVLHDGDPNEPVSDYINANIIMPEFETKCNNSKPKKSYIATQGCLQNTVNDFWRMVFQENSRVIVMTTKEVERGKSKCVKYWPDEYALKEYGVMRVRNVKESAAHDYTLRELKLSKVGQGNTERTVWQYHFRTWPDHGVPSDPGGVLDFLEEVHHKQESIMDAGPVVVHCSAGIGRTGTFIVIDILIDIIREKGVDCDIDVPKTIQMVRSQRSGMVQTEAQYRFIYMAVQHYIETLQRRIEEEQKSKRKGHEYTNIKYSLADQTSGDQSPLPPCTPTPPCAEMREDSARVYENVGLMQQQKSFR
Experiment: SHP2 allosteric inhibition experiment (Homogeneous Full Length SHP-2 Assay Kit)
Format: biochemical
Settings: full-length SHP2 0.06 nM with SHP-2 activating peptide; ten-point, 1 μM to 0.05 nM; read-out: IC50 Values of Compounds Inhibiting SHP2

IC50	SMILES
≤ 10 nM	C[C@@H]1OCC2(CCN(c3ccc4c(=O)n(-c5cccc(Cl)c5Cl)c(=O)[nH]c4n3)CC2)[C@@H]1N [Compound 25, 7-((3S,4S)-4-amino-3-methyl-2-oxa-8-azaspiro[4.5]decane-8-yl)-3-(2,3-dichlorophenyl)pyridinyl[2,3-d]pyrimidine-2,4(1H,3H)-dione]
≤ 10 nM	C[C@@H]1OCC2(CCN(c3cnc(Sc4cccc(-c5cccnc5)c4Cl)nc3)CC2)[C@@H]1N [Compound 105, (3S,4S)-8-(2-((2-chloro-3-(pyridine-3-yl)phenyl)mercapto)pyrimidine-5-yl)-3-methyl-2-oxa-8-azaspiro[4.5]decane-4-amine]
≤ 10 nM	NC1c2cccnc2CC12CCN(c1ccc3c(=O)n(-c4cccc(Cl)c4Cl)c(=O)[nH]c3c1)CC2 (stereo in doubt) [Compound 7, (S)-7-(5-Amino-5,7-dihydrospiro [cyclopenta[b]pyridine-6,4′-piperidine]-1′-yl)-3-(2,3-dichlorophenyl)quinazoline-2,4(1H,3H)-dione]
≤ 10 nM	C[C@@H]1OCC2(CCN(c3ccc4nc(Sc5cccc(-c6ccn(C)n6)c5Cl)cnc4n3)CC2)[C@@H]1N [Compound 91, (3S,4S)-8-(2-((2-chloro-3-(1-methyl-1H-pyrazole-3-yl)phenyl)mercapto)pyridinyl[2,3-b]pyrazine-6-yl)-3-methyl-2-oxa-8-azaspiro[4.5]decane-4-amine]
≤ 10 nM	C[C@@H]1OCC2(CCN(c3cnc(Sc4cccc(-c5ccncn5)c4Cl)nc3)CC2)[C@@H]1N [Compound 106, (3S,4S)-8-(2-((2-chloro-3-(pyrimidine-4-yl)phenyl)mercapto)pyrimidine-5-yl)-3-methyl-2-oxa-8-azaspiro[4.5]decane-4-amine]
≤ 10 nM	Nc1nccc(-n2c(=O)[nH]c3cc(N4CCC5(CC4)COCC5N)ccc3c2=O)c1Cl (stereo in doubt) [Compound 3, (S)-3-(2-amino-3-chloropyridine-4-yl)-7-(4-amino-2-oxa-8-azaspiro[4.5]decane-8-yl)q uinazoline-2,4(1H,3H)-dione]
≤ 10 nM	N[C@@H]1c2ccncc2CC12CCN(c1ccc3c(=O)n(-c4ccnc(NC5CC5)c4Cl)c(=O)[nH]c3n1)CC2 [Compound 28]
≤ 10 nM	Nc1nccc(-n2c(=O)[nH]c3nc(N4CCC5(CC4)Cc4cnccc4[C@H]5N)ccc3c2=O)c1Cl [Compound 27, (S)-3-(2-amino-3-chloropyridine-4-yl)-7-(5-amino-5,7-dihydrospiro[cyclopenta[c]pyridine-6,4′-piperidine]-1′-yl) pyridinyl[2,3-d]pyrimidine-2,4(1H,3H)-dione]
≤ 10 nM	C[C@@H]1OCC2(CCN(c3cnc(Sc4cccc(-c5cncnc5)c4Cl)nc3)CC2)[C@@H]1N [Compound 103, (3S,4S)-8-(2-((2-chloro-3-(pyrimidine-5-yl)phenyl)mercapto)pyrimidine-5-yl)-3-methyl-2-oxa-8-azaspiro[4.5]decane-4-amine]
≤ 10 nM	C[C@@H]1OCC2(CCN(c3ccc4nc(Sc5cccc(NC(=O)c6c(O)nc7n(c6=O)CCCC7)c5Cl)cnc4n3)CC2)[C@@H]1N [Compound 97, N-(3-((6-((3S,4S)-4-amino-3-methyl-2-oxa-8-azaspiro[4.5]decane-8-yl)pyridinyl[2,3-b]pyrazine-2-yl)mercapto)-2-chlorophenyl)-2-hydroxy-4-oxo-6,7,8,9-tetrahydro-4H-p yridinyl[1,2-a]pyrimidine-3-carboxamide]
≤ 10 nM	C[C@@H]1OCC2(CCN(c3cnc4nc(Sc5cccc(NC(=O)c6c(O)nc7n(c6=O)CCCC7)c5Cl)ccc4n3)CC2)[C@@H]1N [Compound 98, N-(3-((2-((3S,4S)-4-amino-3-methyl-2-oxa-8-azaspiro[4.5]decane-8-yl)pyridinyl[2,3-b]pyrazine-6-yl)mercapto)-2-chlorophenyl)-2-hydroxy-4-oxo-6,7,8,9-tetrahydro-4H-p yridinyl[1,2-a]pyrimidine-3-carboxamide]
10 to 100 nM	CC(C)n1ccc(-c2cccc(Sc3cnc(N4CCC5(CC4)CO[C@@H](C)[C@H]5N)nc3)c2Cl)n1 [Compound 113, (3S,4S)-8-(5-((2-chloro-3-(1-isopropyl-1H-pyrazole-3-yl)phenyl)mercapto)pyrimidine-2-yl)-3-methyl-2-oxa-8-azaspiro[4.5]decane-4-amine]
≤ 10 nM	N[C@@H]1c2ccncc2CC12CCN(c1ccc3c(=O)n(-c4cccc(Cl)c4Cl)c(=O)[nH]c3n1)CC2 [Compound 26, (S)-7-(5-Amino-5,7-dihydrospiro [cyclopenta[c]pyridine-6,4′-piperidine]-1′-yl)-3-(2,3-dichlorophenyl)pyridinyl[2,3-d]pyrimidine-2,4(1H,3H)-dione]
≤ 10 nM	C[C@@H]1OCC2(CCN(c3ccc4nc(Sc5cccc(-c6cnccn6)c5Cl)ncc4n3)CC2)[C@@H]1N [Compound 74, (3S,4S)-8-(2-((2-chloro-3-(pyrazine-2-yl)phenyl)mercapto)pyridinyl[3,2-d]pyrimidine-6-yl)-3-methyl-2-oxa-8-azaspiro[4.5]decane-4-amine]
≤ 10 nM	C[C@@H]1OCC2(CCN(c3cnc4c(=O)n(-c5ccnc(NC6CC6)c5Cl)c(=O)[nH]c4n3)CC2)[C@@H]1N [Compound 23]
10 to 100 nM	C[C@@H]1OCC2(CCN(c3ncc(Sc4cccc(-c5ccn(C)n5)c4Cl)cn3)CC2)[C@@H]1N [Compound 111, (3S,4S)-8-(5-((2-chloro-3-(1-methyl-1H-pyrazole-3-yl)phenyl)mercapto)pyrimidine-2-yl)-3-methyl-2-oxa-8-azaspiro[4.5]decane-4-amine]
≤ 10 nM	CCn1ccc(-c2cccc(Sc3ncc4nc(N5CCC6(CC5)CO[C@@H](C)[C@H]6N)ccc4n3)c2Cl)n1 [Compound 68, (3S,4S)-8-(2-((2-chloro-3-(1-ethyl-1H-pyrazole-3-yl)phenyl)mercapto)pyridinyl[3,2-d]pyrimidine-6-yl)-3-methyl-2-oxa-8-azaspiro[4.5]decane-4-amine]
≤ 10 nM	C[C@@H]1OCC2(CCN(c3cnc4nc(Sc5cccc(-c6cccnc6)c5Cl)ncc4n3)CC2)[C@@H]1N [Compound 78]
≤ 10 nM	C[C@@H]1OCC2(CCN(c3nnc(Sc4cccc(NC(=O)c5c(O)nc6n(c5=O)CCCC6)c4Cl)nn3)CC2)[C@@H]1N [Compound 137, N-(3-((5-((3S,4S)-4-amino-3-methyl-2-oxa-8-azaspiro[4.5]decane-8-yl)s-tetrazine-3-yl)mercapto)-2-chlorophenyl)-2-hydroxy-4-oxa-6,7,8,9-tetrahydro-4H-pyridinyl[1,2-a]pyrimidine-3-carboxamide]
≤ 10 nM	C[C@@H]1OCC2(CCN(c3ccc4nc(Sc5cccc(Oc6ccn(C)n6)c5Cl)ncc4n3)CC2)[C@@H]1N [Compound 95]
≤ 10 nM	C[C@@H]1OCC2(CCN(c3ncc(Sc4cccc(NC(=O)c5ccncn5)c4Cl)cn3)CC2)[C@@H]1N [Compound 124, N-(3-((2-((3S,4S)-4-amino-3-methyl-2-oxa-8-azaspiro[4.5]decane-8-yl of 1)pyrimidine-5-yl)mercapto)-2-chlorophenyl)pyrimidine-4-carboxamide]
≤ 10 nM	C[C@@H]1OCC2(CCN(c3cnc4nc(Sc5cccc(Oc6ccn(C)n6)c5Cl)ncc4n3)CC2)[C@@H]1N [Compound 94]
≤ 10 nM	C[C@@H]1OCC2(CCN(c3ncc(Sc4cccc(-c5ccncn5)c4Cl)cn3)CC2)[C@@H]1N [Compound 118, (3S,4S)-8-(5-((2-chloro-3-(pyrimidine-4-yl)phenyl)mercapto)pyrimidine-2-yl)-3-methyl-2-oxa-8-azaspiro[4.5]decane-4-amine]
≤ 10 nM	C[C@@H]1OCC2(CCN(c3cnc4nc(Sc5cccc(-c6ccn(C)n6)c5Cl)ncc4n3)CC2)[C@@H]1N [Compound 63, (3S,4S)-8-(2-((2-chloro-3-(1-methyl-1H-pyrazole-3-yl)phenyl)mercapto)pteridine-6-y 1)-3-methyl-2-oxa-8-azaspiro[4.5]decane-4-amine]
≤ 10 nM	C[C@@H]1OCC2(CCN(c3cnc4nc(Sc5cccc(NC(=O)c6ccncn6)c5Cl)ncc4n3)CC2)[C@@H]1N [Compound 81, N-(3-((6-((3S,4S)-4-amino-3-methyl-2-oxa-8-azaspiro[4.5]decane-8-yl)pteridine-2-yl)mercapto)-2-chlorophenyl)pyrimidine-4-carboxamide]
≤ 10 nM	NC1c2cnccc2CC12CCN(c1ccc3c(=O)n(-c4cccc(Cl)c4Cl)c(=O)[nH]c3c1)CC2 (stereo in doubt) [Compound 6, (S)-7-(7-Amino-5,7-dihydrospiro [cyclopenta[c]pyridine-6,4′-piperidine]-1′-yl)-3-(2,3-dichlorophenyl)quinazoline-2,4(1H,3H)-dione]
≤ 10 nM	CC(C)n1ccc(-c2cccc(Sc3cnc4nc(N5CCC6(CC5)CO[C@@H](C)[C@H]6N)ncc4n3)c2Cl)n1 [Compound 70, (3S,4S)-8-(6-((2-chloro-3-(1-isopropyl-1H-pyrazole-3-yl)phenyl)mercapto)pteridine-2-yl)-3-methyl-2-oxa-8-azaspiro[4.5]decane-4-amine]
≤ 10 nM	CC(C)n1ccc(-c2cccc(Sc3ncc4nc(N5CCC6(CC5)CO[C@@H](C)[C@H]6N)ccc4n3)c2Cl)n1 [Compound 71, (3S,4S)-8-(2-((2-chloro-3-(1-isopropyl-1H-pyrazole-3-yl)phenyl)mercapto)pyridinyl[3,2-d]pyrimidine-6-yl)-3-methyl-2-oxa-8-azaspiro[4.5]decane-4-amine]
